Test results from patent publication US4914127A, “3-Demethylmevalonic acid derivatives, a process for their preparation pharmaceutical products based on these compounds, their use and intermediates” (Hoechst Aktiengesellschaft, priority 1985, dated 1990).
pIC50: −log10 of the molar value. Like-named read-outs stand apart in the source and are kept apart here.

Columns and labels:
[1] = in human trials; cited from earlier work
[2] = in the rat; cited from earlier work
HMG-CoA reductase = biological target: T1, HMG-CoA reductase (Rattus norvegicus, UniProt P51639); assay: HMG-CoA reductase activity in solubilized enzyme preparations from liver microsomes of rats; assay type: biochemical; settings: 14C-HMG-CoA substrate, mean from 3 parallel samples, read-out: IC50 [M], inhibition of HMG-CoA reductase
T1 construct: solubilized enzyme preparations from liver microsomes of rats; from tissue; host or cells: liver microsomes of cholestyramine-induced rats
T1 sequence (P51639 1-887): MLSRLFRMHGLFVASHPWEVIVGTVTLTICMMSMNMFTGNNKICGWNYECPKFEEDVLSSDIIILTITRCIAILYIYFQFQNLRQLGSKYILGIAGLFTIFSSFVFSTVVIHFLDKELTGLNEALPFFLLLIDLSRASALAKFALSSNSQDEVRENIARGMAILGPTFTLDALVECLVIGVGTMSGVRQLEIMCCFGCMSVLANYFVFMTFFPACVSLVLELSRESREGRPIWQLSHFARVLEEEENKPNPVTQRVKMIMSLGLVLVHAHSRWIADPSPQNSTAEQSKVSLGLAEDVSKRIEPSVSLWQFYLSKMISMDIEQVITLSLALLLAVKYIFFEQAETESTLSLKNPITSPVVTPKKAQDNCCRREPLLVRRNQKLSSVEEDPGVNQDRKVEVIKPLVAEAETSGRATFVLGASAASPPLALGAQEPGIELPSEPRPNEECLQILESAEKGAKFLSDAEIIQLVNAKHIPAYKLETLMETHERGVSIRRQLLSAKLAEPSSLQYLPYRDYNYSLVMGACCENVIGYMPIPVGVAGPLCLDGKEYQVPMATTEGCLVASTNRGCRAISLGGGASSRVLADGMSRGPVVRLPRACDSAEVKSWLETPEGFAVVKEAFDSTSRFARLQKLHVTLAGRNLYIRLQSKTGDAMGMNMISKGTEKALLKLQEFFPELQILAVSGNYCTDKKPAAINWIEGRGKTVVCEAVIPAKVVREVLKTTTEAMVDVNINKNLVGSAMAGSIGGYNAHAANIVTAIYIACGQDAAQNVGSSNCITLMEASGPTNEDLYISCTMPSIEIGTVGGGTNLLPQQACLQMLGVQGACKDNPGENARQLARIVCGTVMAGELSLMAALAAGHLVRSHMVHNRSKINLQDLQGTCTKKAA
Method: 1. HMG-CoA reductase activity in enzyme preparations
The HMG-CoA reductase activity was measured on solubilized enzyme preparations from liver microsomes of rats which, after the day/night rhythm had been changed, were induced with cholestyramine (®Cuemid). The substrate used was (S,R) ^14 C-HMG-CoA, and the concentration of NADPH was maintained during the incubation by a regenerating system. ^14 C-Mevalonate was removed from the substrate and other products (for example ^14 C-HMG) by column elution, the elution profile for each individual sample being determined. Constant inclusion of ^3 H-mevalonate was dispensed with because the determination was of the relative inhibitory effect. In each series of tests, the control containing no enzyme, and the normal mixture containing enzyme (=100%) and those with added products, final concentration 10^-5 to 10^-9 M, were treated together. Each individual figure was formed as the mean from 3 parallel samples. The signficance of the differences in the means between samples containing no product and those containing product was assessed by the t test.
Using the method described above, the following figures for the inhibition of HMG-CoA reductase were determined for the compounds according to the invention, for example: […]

[3] = tested on: 3-hydroxy-3-methylglutaryl-coenzyme-A reductase (HMG-CoA reductase); settings: in words; cited from earlier work
[4] = biological target: T2, HMG-CoA reductase (in HEP-G2 cells) (Homo sapiens, UniProt P04035); assay: Suppression or inhibition of HMG-CoA reductase in cell cultures (HEP-G2 cells; method described for fibroblasts, L cells); assay type: cell-based
T2 construct: endogenous in cells; host or cells: HEP-G2 cells
T2 sequence (P04035 1-888): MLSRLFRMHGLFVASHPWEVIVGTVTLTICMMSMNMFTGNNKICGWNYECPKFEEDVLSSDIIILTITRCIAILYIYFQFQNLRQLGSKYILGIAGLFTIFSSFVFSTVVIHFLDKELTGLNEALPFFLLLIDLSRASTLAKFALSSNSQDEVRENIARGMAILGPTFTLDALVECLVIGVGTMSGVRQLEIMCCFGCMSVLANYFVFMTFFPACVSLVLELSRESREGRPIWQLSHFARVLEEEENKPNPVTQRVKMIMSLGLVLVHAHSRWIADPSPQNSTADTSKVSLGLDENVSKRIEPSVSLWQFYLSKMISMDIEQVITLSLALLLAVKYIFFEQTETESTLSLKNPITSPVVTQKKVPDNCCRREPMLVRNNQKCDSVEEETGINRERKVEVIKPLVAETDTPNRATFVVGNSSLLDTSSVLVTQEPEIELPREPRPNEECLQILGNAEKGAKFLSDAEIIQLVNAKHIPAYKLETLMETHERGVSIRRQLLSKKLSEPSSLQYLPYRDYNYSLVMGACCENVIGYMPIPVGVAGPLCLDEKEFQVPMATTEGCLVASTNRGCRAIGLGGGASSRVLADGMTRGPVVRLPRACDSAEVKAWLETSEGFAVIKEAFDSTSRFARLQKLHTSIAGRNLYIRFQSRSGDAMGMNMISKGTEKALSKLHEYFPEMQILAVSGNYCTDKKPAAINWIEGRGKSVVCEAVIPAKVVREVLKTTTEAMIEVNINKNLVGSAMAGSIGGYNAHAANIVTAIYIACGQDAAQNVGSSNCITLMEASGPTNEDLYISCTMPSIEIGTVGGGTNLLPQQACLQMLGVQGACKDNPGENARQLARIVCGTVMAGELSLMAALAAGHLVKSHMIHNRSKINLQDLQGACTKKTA
Method: 2. Suppression or inhibition of HMG-CoA reductase in cell cultures of fibroblasts.
Monolayers of fibroblasts (L cells) in lipoprotein-free nutrient medium were incubated with appropriate concentrations of test substances for a specified period (for example 3 hours) and then the HMG-CoA reductase activity of the cells was determined by modification of the method of Chang et al. (J. Biol. Chem. 256, 6174 (1981)). For this purpose, the cell extracts were incubated with D,L-[^3 H]-HMG-CoA, and the product [^3 H]-mevalonate formed from the cells by the action of the HMG-CoA reductase activity present was, after cyclization to [^3 H]-mevalonolactone, separated from the starting material by thin-layer chromatography and, by use of an internal standard of [^14 C]-mevalonate, the amount of [^3 H]-mevalonate formed in unit time was determined and related to the amount of cellular protein.

Row | SMILES | IC50 (HMG-CoA reductase) | pIC50 [4] | further results
1 | CC(O)(CC(=O)O)CC(=O)O [3-Hydroxy-3-methylglutaric acid] | – | – | cholesterol-lowering action [1]: significant cholesterol-lowering action; cholesterol-lowering action [2]: significant cholesterol-lowering action
2 | Cc1cccc(Cc2ccc(Cl)cc2)c1/C=C/[C@@H]1C[C@@H](O)CC(=O)O1 [16 y] | 2.8e-07 M | – | –
3 | CC[C@H](C)C(=O)O[C@H]1CCC=C2C=C[C@H](C)[C@H](CC[C@@H]3C[C@@H](O)CC(=O)O3)[C@H]21 [Compactin] | – | – | inhibition of HMG-CoA reductase [3]: inhibition
4 | O=C1C[C@H](O)C[C@@H](/C=C/c2c(Cl)cc(Cl)cc2CC2CCCCC2)O1 [16 z] | 1.9e-08 M | 5.72 | –
5 | O=C1C[C@H](O)C[C@@H](/C=C/c2ccccc2CC2CCCCC2)O1 [16 j] | 9e-08 M | 3.42 | –
6 | O=C1C[C@H](O)C[C@@H](/C=C/c2ccccc2Cc2ccc(Cl)cc2)O1 [16 l] | 8e-07 M | – | –
7 | O=C1C[C@H](O)C[C@@H](/C=C/c2c(Cl)cccc2Cc2ccc(Cl)cc2)O1 [16 ab] | 2.3e-07 M | 3.68 | –
8 | Cc1cccc(CCC2CCCCC2)c1/C=C/[C@@H]1C[C@@H](O)CC(=O)O1 [16 u] | 6.5e-07 M | 3.70 | –
9 | O=C1C[C@H](O)C[C@@H](/C=C/c2c(Cl)cccc2CC2CCCCC2)O1 [16 ac] | 7.1e-08 M | 5.49 | –
10 | O=C1C[C@H](O)C[C@@H](/C=C/c2ccccc2CCc2ccc(F)cc2)O1 [16 g] | 9e-07 M | 3.30 | –
